Columns and labels:
APOE*3Leiden mice = experiment: Hepatic mRNA expression levels by RT-PCR (normalized to HPRT); assay type: in vivo; parameters: key to acc1 mRNA, Change / mttp mRNA, Change / dgat1 mRNA, Change / dgat2 mRNA, Change / aco mRNA, Change / ldlr mRNA, Change / apob mRNA, Change / srebp2 mRNA, Change / pparα mRNA, Change / pparγ mRNA, Change / lxrα mRNA, Change / lxrβ mRNA, Change / fxr mRNA, Change / hmgcoAred mRNA, Change / cyp7α mRNA, Change / abca1 mRNA, Change / srebp1c mRNA, Change / fas mRNA, Change: ↑, (upregulated); ↓, (downregulated); n.s., not significant
Experimental: Plasma parameters: Tail blood samples were collected in EDTA-coated cups, or in paraoxon-coated capillaries to prevent lipolysis as described in Zambon et al. 1993 (Zambon et al. 1993. J. Lipid Res. 34:1021-1028). Plasma lipid parameters were determined using commercial kits for total cholesterol (C) Chol R1 from Roche Diagnostics, Mannheim, Germany), non-esterified free fatty acids (FFA) (NEFA-C; Wako chemicals, Neuss, Germany), Total triglycerides (TG) (Triglyceride GPO-Trinder; Sigma, St. Louis, Mo.), β-hydroxybutyrate (β-HB; Sigma) and ALAT (Reflotron GPT; Roche). Serum amyloid A (SAA) was measured by ELISA (Biosource, Nivelles, Belgium) and fibrinogen by sandwich ELISA, as described in Koopman et al., 2005 (Koopman et al. 2005. Fibrinol Proteol 11:19). For lipoproteins fractionation, groupwise-pooled plasma was size-fractionated by fast protein liquid chromatography (FPLC) on a Superose 6 column (Äkta; Amersham Pharmacia Biotech, Uppsala, Sweden). Fractions were assayed for total C and TG as described. Hepatic VLDL-TG production: The rate of hepatic VLDL-TG production, de novo apoB secretion, and VLDL composition were determined in overnight-fasted mice. Mice were anaesthetized with vetranquil/fentanyl/midazolam i.p., and injected i.v. with 0.1 ml PBS containing 100 μCi Tran^35S-label™ (ICN Biomedicals, Irvine, Calif.) to measure the de novo apoB synthesis. After 30 min, the animals received a Triton WR1339 injection (Tyloxapol, Sigma; 500 mg/kg body weight in 100 μl saline) to prevent systemic lipolysis of newly-secreted hepatic VLDL-TG (Aalto-Setala et al. 1992. J. Clin. Invest 90:1889-1900.27) Blood samples were drawn at 0, 15, 30, 60, and 90 min after Triton WR1339 injection and plasma TG concentrations were determined. After 90 min, the animals were sacrificed and blood was collected by retro-orbital bleeding for isolation of VLDL. VLDL composition: VLDL particles (d<1.019) were separated from other lipoproteins in plasma by density gradient ultra-centrifugation, as described in Jong et al., 1996 (Jong et al. 1996. Arterioscler. Thromb. Vasc. Biol. 16:934-940). Protein content of the VLDL fraction was determined by Lowry's assay (Lowry et al., 1951. J. Biol. Chem. 193:265-275), and TG and total C were determined as described above. Phospholipids and free cholesterol were determined using standard commercial kits (Wako Chemicals, Neuss, Germany). The ^35S-apoB content of VLDL was measured after selective precipitation of apoB with isopropanol as described elsewhere (Li et al. 1996 J. Lipid Res. 37:210-220; Pietzsch et al. 1995. Biochim. Biophys. Acta 1254:77-88). In vivo clearance of VLDL-like TG-rich particles: To determine whether 1% PS accelerates the clearance of TG-rich lipoproteins from plasma, we used radiolabeled emulsion particles as a tool. VLDL-like emulsion particles containing 200 μCi of [^3H]triolein and 20 μCi of [^14C]cholesteryl oleate were prepared and characterized as described in Rensen et al. 1997 (Rensen et al., 1997. J. Lipid Res. 38:1070-1084). Fed mice were anaesthetized as described above and laparotomy was performed. […] After taking the last liver and blood sample, the remainder of the liver, heart, spleen, hind limb muscle, and gonadal, perirenal and intestinal white adipose tissues were harvested. Lipids were extracted overnight at 60° C. in 500 μL of Solvable™, and radioactivity was counted as described in Rensen et al., 1997 (supra). RNA isolation and RT-PCR: Livers from 4 h-fasted mice fed 1% PS-containing diet or control Western-type diet for 5 weeks were removed immediately after sacrifice, flushed with cold 0.9% NaCl and snap frozen in liquid nitrogen. Total RNA was isolated as described by Chomczynski and Sacchi (Chomczynski, P. and Sacchi, N. 1987. Anal. Biochem. 162:156-159) by use of RNA-Bee™ (Campro Scientific, Berlin, Germany). cDNA synthesis was performed according to Bloks et al (Bloks et al., 2001. J. Lipid Res. 42:41-50). […]

apoE3*-Leiden mice = experiment: Example 2 overview: high fat high cholesterol W-diet with 1% phytosphingosine, 4 weeks; assay type: in vivo
Experimental: The experiment as described in example 1 was repeated several times but using 1% phytosphingosine as a supplement to the W-diet. Each time, one group (control group, consisting of 6 or 12 apoE3*-Leiden mice) was fed the high fat high cholesterol W-diet. Another group (treatment group, consisting of 6 or 12 apoE3*-Leiden mice), was fed the same high fat high cholesterol W-diet diet supplemented with 1% phytosphingosine.
In all mice the following parameters were determined (after 4 hours of fasting) after a diet period of 4 weeks: plasma total cholesterol (PTC), plasma triglycerides (PTG), plasma free fatty acids (PFFA), liver total cholesterol (LTC), liver triglycerides (LTG), liver cholesteryl esters (LCE), serum amyloid A (SAA) (mg/ml), fibrinogen (in mg/ml), body weight (in g), liver weight (in g), heart weight (in g), ALAT (in U/L).

[1] = 1% PS diet, 5 weeks, control = 100%

CCCCCCCCCCCCCC[C@@H](O)[C@@H](O)[C@@H](N)CO [PS, phytosphingosine] was tested, and the “abca1 mRNA, Change” value (APOE*3Leiden mice; 1% PS diet vs control) was “n.s”, the “acc1 mRNA, Change” value (APOE*3Leiden mice; 1% PS diet vs control) was “n.s” and the “aco mRNA, Change” value (APOE*3Leiden mice; 1% PS diet vs control) was “n.s”. For the same compound, the “apob mRNA, Change” value (APOE*3Leiden mice; 1% PS diet vs control) was “n.s”, the “cyp7α mRNA, Change” value (APOE*3Leiden mice; 1% PS diet vs control) was “↓” and the “dgat1 mRNA, Change” value (APOE*3Leiden mice; 1% PS diet vs control) was “n.s”. The “dgat2 mRNA, Change” value (APOE*3Leiden mice; 1% PS diet vs control) was “↑”, the “fas mRNA, Change” value (APOE*3Leiden mice; 1% PS diet vs control) was “↑” and the “fxr mRNA, Change” value (APOE*3Leiden mice; 1% PS diet vs control) was “↑”. The “hmgcoAred mRNA, Change” value (APOE*3Leiden mice; 1% PS diet vs control) was “↑”, the “ldlr mRNA, Change” value (APOE*3Leiden mice; 1% PS diet vs control) was “↑” and the “lxrα mRNA, Change” value (APOE*3Leiden mice; 1% PS diet vs control) was “↑”. For the same compound, the “lxrβ mRNA, Change” value (APOE*3Leiden mice; 1% PS diet vs control) was “↓”, the “mttp mRNA, Change” value (APOE*3Leiden mice; 1% PS diet vs control) was “↑” and the “pparα mRNA, Change” value (APOE*3Leiden mice; 1% PS diet vs control) was “n.s”. For the same compound, the “pparγ mRNA, Change” value (APOE*3Leiden mice; 1% PS diet vs control) was “n.s”, the “srebp1c mRNA, Change” value (APOE*3Leiden mice; 1% PS diet vs control) was “↑” and the “srebp2 mRNA, Change” value (APOE*3Leiden mice; 1% PS diet vs control) was “↑”. The “abca1 hepatic mRNA level” value (APOE*3Leiden mice; [1]) was 79 ± 6%, the “acc1 hepatic mRNA level” value (APOE*3Leiden mice; [1]) was 138 ± 29% and the “aco hepatic mRNA level” value (APOE*3Leiden mice; [1]) was 56 ± 9%. For the same compound, the “apob hepatic mRNA level” value (APOE*3Leiden mice; [1]) was 105 ± 25%, the “cyp7α hepatic mRNA level” value (APOE*3Leiden mice; [1]) was 7 ± 2% and the “dgat1 hepatic mRNA level” value (APOE*3Leiden mice; [1]) was 112 ± 27%. For the same compound, the “dgat2 hepatic mRNA level” value (APOE*3Leiden mice; [1]) was 185 ± 23%, the “fas hepatic mRNA level” value (APOE*3Leiden mice; [1]) was 237 ± 33% and the “fxr hepatic mRNA level” value (APOE*3Leiden mice; [1]) was 164 ± 58%. For the same compound, the “hmgcoAred hepatic mRNA level” value (APOE*3Leiden mice; [1]) was 444 ± 71%, the “ldlr hepatic mRNA level” value (APOE*3Leiden mice; [1]) was 209 ± 14% and the “lxrα hepatic mRNA level” value (APOE*3Leiden mice; [1]) was 162 ± 13%. The “lxrβ hepatic mRNA level” value (APOE*3Leiden mice; [1]) was 16 ± 8%, the “mttp hepatic mRNA level” value (APOE*3Leiden mice; [1]) was 167 ± 5% and the “pparα hepatic mRNA level” value (APOE*3Leiden mice; [1]) was 125 ± 10%. The “pparγ hepatic mRNA level” value (APOE*3Leiden mice; [1]) was 119 ± 10%, the “srebp1c hepatic mRNA level” value (APOE*3Leiden mice; [1]) was 194 ± 3% and the “srebp2 hepatic mRNA level” value (APOE*3Leiden mice; [1]) was 317 ± 33%. For the same compound, the “Plasma lipid levels (total cholesterol, triglycerides and free fatty acids) vs control” value (apoE3*-Leiden mice; 1% PS in W-diet) was “significantly decreased”, the “Liver lipid levels vs control” value (apoE3*-Leiden mice; 1% PS in diet W) was “significantly decreased” and the ALAT vs control (apoE3*-Leiden mice; 1% PS in the diet) was “significantly lowered”. The “Plasma level of fibrinogen vs control” value (apoE3*-Leiden mice; 1% phytosphingosine in W-diet) was “increased” and the “Levels of serum amyloid A (SAA) vs control” value (apoE3*-Leiden mice; 1% phytosphingosine in W-diet, 4 hours fasting) was “significantly lower”.

Reference: patent US7906488B2, “Sphingolipids in treatment and prevention of steatosis and of steatosis or of hepatotoxicity and its sequelae” (Nederlandse Organisatie Voor …, priority 2004, dated 2011)
